Among the data in patent US20130060023A1, “Compounds useful for treating neurodegenerative disorders” (Satori Pharmaceuticals, Inc., priority 2011, published 2013) are IC50 values, retold here.

Structures are written as SMILES. Like-named read-outs stand apart in the source and are kept apart here. A value given as a limit tells only on which side of the number the result lay.

Common to all, as to type: cell-based
Settings in all cases: Homo sapiens, 5 hours at 37° C., 1% DMSO

For assay [1], the system named is Aβ-42. Briefly: Aβ-42 level in conditioned media of 2B7 cells, MSD 3-PLEX ELISA. How it is done:
(§1) Assays were conducted to determine the ability of a Compound of Formula I to modulate […], […], and Aβ-38. μELISA Plates: Human (6E10) Ab 3-PLEX ELISA kits were purchased from Meso Scale Discovery Labs, 9328 Gaither Road, Gaithersburg, Md. 20877 (Catalog Number […]-3). Plates with capture antibodies were blocked for 1-2 hours at room temperature with 150 μL of the manufactures blocking reagent. Conditioned Media: Cultured 2B7 cells in 96 well plate with 250 μL of media per well until confluent; Prepared serial dilutions of compounds in DMSO at 100× the final desired concentration; Washed wells with 2B7 cells 1× with 250 μL of media; Diluted DMSO stocks 1:100 into media: • Added 250 μL of media containing compounds (1% DMSO) to wells with 2B7 cells for 5 hours at 37° C. ELISA Sample Prep: Diluted conditioned media: 1 part media with 1% DMSO and 1 part blocking buffer; 150 μL of the 250 μL of conditioned media were used. Standard Curve Sample Prep: Prepared per manufacturer's protocol (see above). […] Final Wash and Readout: Washed wells 5× with MSD wash buffer; Added 150 μL 2×MSD read buffer; Read with MSD imager. […] Data Analysis: Aβ peptide levels for each peptide were calculated from the standard curve using the MSD software provided with the MSD 2400 Imager. Percent vehicle values for each compound dosage were then calculated and fit to a 4 parameter curve generating IC50 values.

In assay [2] the test system is Aβ-38. Briefly: Aβ-38 level in conditioned media of 2B7 cells, MSD 3-PLEX ELISA. The procedure: as §1
(In general: In an ELISA, binding on a coated surface is turned into a signal by an enzyme label.)

For assay [3], the system named is Aβ-40. Put plainly: Aβ-40 level in conditioned media of 2B7 cells, MSD 3-PLEX ELISA. How it is done: as §1

As to `CC(C)[C@@H](OC(=O)N1CCC1)[C@H]1C[C@@H](C)[C@H]2[C@H](O1)[C@H](O)[C@@]1(C)[C@@H]3CC[C@H]4C(C)(C)[C@@H](O[C@H]5CN([C@@H]6CCNC6=O)CCO5)CC[C@@]45C[C@@]35CC[C@]21C` [Compound I-1], the IC50 in assay [1] (inflection of 4 parameter curve, read-out: Aβ 42 DR IC50 Inflection) is more than 5000 nM; in assay [1] (read-out: Aβ 42 IC50), 100 to 500 nM; in assay [2] (inflection of 4 parameter curve, read-out: Aβ 38 DR IC50 Inflection), more than 5000 nM; in assay [2] (read-out: Aβ 38 IC50) it was 501 to 1000 nM; in assay [3] (inflection of 4 parameter curve, read-out: Aβ 40 DR IC50 Inflection), more than 5000 nM; in assay [3] (read-out: Aβ 40 IC50), more than 5000 nM.

The IC50 is the concentration that inhibits the measured activity by half.
